Measurements from patent US20140308294A1, “Anti-IL-1R1 Inhibitors For Use in Cancer” (MERCK PATENT GMBH, priority 2011, published 2014).

Key:
[1] = test system: primary CRC CSC-derived xenograft tumors; experiment: CSC-xenograft tumor growth, CRC model in NOD/SCID mice; type: in vivo, mouse; conditions: 5 or 10 mg daily s.c., 76 days
Method: (§1) CSC were FACS-enriched from primary tumor-derived NSCLC and CRC cell line cultures on the basis ALDH activity as determined by the Aldefluor assay. 10^4 cells/mouse were transplanted s.c. in NOD/SCID mice together with Matrigel. A Loading dose of 5 μg/mL Kineret (recombinant […], Amgen) was applied to the Matrigel and subsequent daily treatment s.c. with either 5 or 10 mg Kineret was performed beginning on day 1 post transplantation. Tumor volumes were monitored weekly and three mice from each group were sacrificed at day 76 for the CRC model (A.) and at day 91 for the NSCLC model (B.) for further analysis. For the remaining animals Kineret treatment was stopped and tumor progression was continually monitored. When tumors reached >2000 mm^3 mice were sacrificed. At time of sacrifice serum was collected along for cytokine analysis. A. Tumor growth curves in the CRC tumor model study and B. growth curves in the NSLCL model study. Curves represent mean tumor volume in mm3 from 10 mice/group; error bars are SEM The data shown for each model is representative of n=2 similar experiments.
(§2) Human cell cultures derived from primary tumors obtained from a CRC (FIG. 12A) and a NSCLC (FIG. 12B) patient were sorted for the Aldeflour-positive population using fluorescence activated cell sorting (FACS). […]
(§3) Tumor volume was monitored weekly for 76 days in the CRC model and for 91 days in the NSCLC model.

[2] = test system: primary NSCLC CSC-derived xenograft tumors; experiment: CSC-xenograft tumor growth, NSCLC model in NOD/SCID mice; type: in vivo, mouse; conditions: 5 or 10 mg daily s.c., 91 days
Method: as §1, §2, §3

hIL8 = experiment: Serum hIL8 ELISA in NOD/SCID mice with CSC-xenograft tumors; type: in vivo, mouse; conditions: CRC day 76 and NSCLC day 91, vs vehicle
Method: (§4) This analysis was performed on serum collected from the tumor model studies described in FIG. 18. Serum analysis was performed using high-sensitivity ELISA assay kits obtained from R&D systems. A.C. Serum from 3 mice at day 76 (CRC) (blue) and at day 91 (NSCLC) (red) was analyzed for hIL8 and hVEGF serum levels. Results are shown as bar graphs representing the mean cytokine concentration in pg/mL+/−SD from n=3 mice/group.
(§5) Three mice from each study group were sacrificed at day 76 (CRC) or day 91 (NSCLC). The tumors were excised, dissociated into single cells, and viably cryopreserved. Serum was also collected for cytokine detection. For the remaining mice Kineret treatment was stopped and the mice were further monitored for tumor growth. When tumors reached ethical tumor-burden limits the mice were sacrificed and tumor cells and serum were collected. […] From all sacrificed mice we also collected and cryopreserved bone marrow cells from the femur and tibial bones for possible analyses.

hVEGF = experiment: Serum hVEGF ELISA in NOD/SCID mice with CSC-xenograft tumors; type: in vivo, mouse; conditions: CRC day 76 and NSCLC day 91, vs vehicle
Method: as §4, §5

[3] = Tolerability in NOD/SCID mice of the xenograft studies; type: in vivo; conditions: 5 and 10 mg daily s.c.
Excerpt: Human cell cultures derived from primary tumors obtained from a CRC (FIG. 12A) and a NSCLC (FIG. 12B) patient were sorted for the Aldeflour-positive population using fluorescence activated cell sorting (FACS). Aldefluor is a marker of high aldehyde-dehydrogenase activity, which is associated with both normal stem cell and CSC phenotypes. The sorted aldefluor-positive (AF+) cells were suspended in Matrigel and injected subcutaneously at a very low cell number (2×10^4 cells/mouse) into NOD/SCID immune-deficient mice. The matrigel suspensions contained a Kineret loading dose of 5 μg/mL which corresponds to reported serum levels of Kineret after daily s.c. dosing. Starting 1 day after inoculation of the AF+ cells, mice were treated daily with 5 mg or 10 mg of Kineret (purchased from Biovitrum) or the drug vehicle. The administration route was s.c. as is standard for Kineret in the clinic.
as §3

[4] = in vivo, sc; cited from earlier work

Kineret: human IL1R-antagonist (IL1RA) marketed under the trade name Kineret, Amgen; approved for rheumatoid arthritis
inhibition of tumor growth [1]: strong inhibition at both the 5 and 10 mg doses | inhibition of tumor growth [2]: response was only achieved with the higher dose of 10 mg/kg | hIL-8 levels in mouse serum (hIL8): reduced to undetectable levels | hVEGF levels in mouse serum (hVEGF): did not alter | tolerability [3]: well tolerated | reported serum levels after daily s.c. dosing [4]: 5 µg/mL
